Read-outs that look alike come from different tables or passages of the source.

For experiment [1], the system named is guinea pig lung parenchyma strips. In words: Inhibition of the antigen-caused constriction of passively sensitised guinea pig lung parenchyma strips in vitro (organ bath). More on the design: key to R = relaxation: R: relaxation. To be noted: for inhibition at 40 µg/mL / inhibition at 10 µg/mL: Cavia porcellus. Here is the method: As further detection for the anti-allergic action, there was investigated the inhibition of the antigen-caused constriction of passive sensitised guinea pig lung parenchyma strips in vitro.
Inhibition of the Antigen-Caused Construction of Passively Sensitised Guinea Pig Lung Parenchyma Strips in Vitro (Organ Bath)
For the in vitro investigation of the compounds according to the invention, there was measured the inhibition of the antigen-caused constriction on passively sensitised guinea pig lung parenchyma strips, as described in the following.
Pirbright white guinea pigs were stunned by neck blow and exsanguinated. The lungs were rinsed in situ substantially free of blood with Krebs buffer, pH 7.4.
Subsequently, the lung was removed, cut up into strips (about 20×4×4 mm) and the strips passively sensitised for 1 hour at room temperature with a 1:50 dilution of a homologous anti-ovalbumin antiserum and then washed with Krebs buffer 1×.
The antiserum had been previously produced in guinea pigs of the same strain according to Davies G. E., T. P. Johnstone (Quantitative studies on anaphylaxis in guinea pigs passively sensitised with homologous antibody; Inter. Arch. 41, 648-654 (1971)) by repeated injection of ovalbumin (2×crystallised) with the addition of complete Freund's adjuvant.
Up to its use, the antiserum was stored undiluted at -18° C.
Subsequently, the lung strips were suspended individually in 10 ml. waterbaths with a prestressing of 1.2 g on an isometric measurement recorder.
Thereafter, the waterbaths were filled with Krebs buffer and continuously gassed at 37° C. with O2 (95%) and CO2 (5%).
The constructions of the lung strips were recorded on a disc via an amplifier.
After 30 minutes acclimatisation phase, histamine control spasms were produced for the recognition of the reaction ability of the organ pieces, washed, subsequently the test substance pre-incubated for 20 minutes at 37° C. and thereafter the ovalbumin-caused constriction initiated.
The inhibition actions of the compounds according to the invention were expressed as percentage reduction of the constriction amplitude of the "samples with test substance" in comparison with the "untreated control constrictions".

The test system of experiment [2] is peripheral human leukocytes. In words: Inhibition of anti-IgE-induced proteinase liberation from peripheral human leukocytes. Format: cell-based. The source says: (§1) For the detection of the anti-allergic action, there was used the inhibition of the proteinase liberation from peripheral human leukocytes induced by anti-IgE antibodies (Wilhelmset et al. XII Congress Europ. Acad. Allergology Clin. Immunology, Rome, Sep. 25--3), 1983, as well as DE-Al-34 46 714) or of the histamine liberation in an analogous process according to a further development of the method of R. P. Siraganian and W. A. Hook (Manual of Clinical Immunology, 2nd edition, 1980, pub. N. R. Rose and H. Friedman, Am. Soc. for Microbiology, pages 808 to 821).
(§2) Description of the Test System for the Testing for Mediator Liberation Inhibition from Human Leukocytes in Vitro
(§3) The liberation of proteinase on isolated human leukocytes is initiated by stimulation with anti-IgE antibodies (IgE-mediated mediator liberation from basophilic granulocytes). The intensity of this liberation reaction is determined by substrate addition (chromozyme TH) and photometric measurement in that the colour intensity of the samples±inhibitor addition are compared.
(§4) Buffy-coat cells=concentrated cell suspension from blood preserve.
(§5) In the following Table I are reproduced the inhibition values of the anti-IgE-induced liberation of histamine and proteinase from peripheral human leukocytes. As comparison substance, there was used the known degranulation inhibitor theophylline.

In experiment [3] the test system is lettuce seeds (Lactuca sativa). To be noted: cited from earlier work.
The test system of experiment [4] is peripheral human leukocytes. In words: Inhibition of anti-IgE-induced histamine liberation from peripheral human leukocytes. Format: cell-based.
From the text: as §1, §2, §3, §4, §5

The subject of another experiment is plant growth. To be noted: cited from earlier work.
[5] abbreviates: substance 10.00 mcg/ml, A = histamine 1.0 mcg/ml.
Where [6] appears, read: substance 10.00 mcg/ml, B = ovalbumin 0.1 mcg/ml.
Where [7] appears, read: substance 10.00 mcg/ml, C = glucose 1.16 %.
[8] abbreviates: substance 10.00 mcg/ml, D = ovalbumin 1.0 mcg/ml.
[9] abbreviates: substance 40.00 mcg/ml, A = histamine 1.0 mcg/ml.
Where [10] appears, read: substance 40.00 mcg/ml, B = ovalbumin 0.1 mcg/ml.
Setting [11] is: substance 40.00 mcg/ml, C = glucose 1.16 %.
Where [12] appears, read: substance 40.00 mcg/ml, D = ovalbumin 1.0 mcg/ml.
[13] abbreviates: substance 40.00 mcg/ml, A = histamine 1.0 mcg/ml, read-out: Inhibition of constriction (percentage reduction of the constriction amplitude), spasmogen A.
The mark [14] stands for this setting: substance 40.00 mcg/ml, B = ovalbumin 0.1 mcg/ml, read-out: Inhibition of constriction (percentage reduction of the constriction amplitude), spasmogen B.
Where [15] appears, read: substance 40.00 mcg/ml, C = glucose 1.16 %, read-out: Inhibition of constriction (percentage reduction of the constriction amplitude), spasmogen C.
The mark [16] stands for this setting: substance 40.00 mcg/ml, D = ovalbumin 1.0 mcg/ml, read-out: Inhibition of constriction (percentage reduction of the constriction amplitude), spasmogen D.
The mark [17] stands for this setting: Homo sapiens, Leukocyte, conc. 2 μg/ml.
Where [18] appears, read: Homo sapiens, Leukocyte, conc. 10 μg/ml.
The mark [19] stands for this setting: substance 10.00 mcg/ml, A = histamine 1.0 mcg/ml, read-out: Inhibition of constriction (percentage reduction of the constriction amplitude), spasmogen A.
[20] abbreviates: substance 10.00 mcg/ml, B = ovalbumin 0.1 mcg/ml, read-out: Inhibition of constriction (percentage reduction of the constriction amplitude), spasmogen B.
Setting [21] is: substance 10.00 mcg/ml, C = glucose 1.16 %, read-out: Inhibition of constriction (percentage reduction of the constriction amplitude), spasmogen C.
Where [22] appears, read: substance 10.00 mcg/ml, D = ovalbumin 1.0 mcg/ml, read-out: Inhibition of constriction (percentage reduction of the constriction amplitude), spasmogen D.
The mark [23] stands for this setting: Homo sapiens, Leukocyte, conc. 90 μg/ml.

Consider `C[C@@H]1CCCCC[C@H](O)[C@H](O)/C=C/C(=O)O1` [cladospolide A], for which the “Inhibition of constriction (percentage reduction of the constriction amplitude), spasmogen A” value is given as -5% in experiment [1] (setting [5]) and 16% in experiment [1] (setting [9]). Besides, the “Inhibition of constriction (percentage reduction of the constriction amplitude), spasmogen B” value in experiment [1] (setting [6]) is listed as -50%; in experiment [1] (setting [10]) it was 34%. The “Inhibition of constriction (percentage reduction of the constriction amplitude), spasmogen C” value in experiment [1] (setting [7]) was -85%; in experiment [1] (setting [11]), 33%. In addition, the figures for the “Inhibition of constriction (percentage reduction of the constriction amplitude), spasmogen D” value in experiment [1] (setting [8]) and in experiment [1] (setting [12]) were -76% and 24%, respectively. Besides, the “% inhibition proteinase” value in experiment [2] (conc. 2 μg/ml) is given as 5%; in experiment [2] (conc. 10 μg/ml), 46%. Besides, the “action on the root growth of lettuce seeds” value in experiment [3] is reported as “weakly inhibitingly”. The figures for the “% inhibition histamine” value in experiment [4] (conc. 2 μg/ml) and in experiment [4] (conc. 10 μg/ml) were 8% and 44%, respectively.

On to `C[C@H]1CCCCC[C@H](O)[C@@H](O)/C=C\C(=O)O1` [cladospolide B], for which the “action on the root growth of lettuce seeds” value in experiment [3] is “promotingly”.

As to `CC(=O)OC1C=CC(=O)OC(C)CCCCCC1OC(C)=O` (stereo not drawn) [diacetylcladospolide A, Diacetylcladospolide A], the inhibition at 40 µg/mL was 6% in experiment [1] (setting [13]), 44% in experiment [1] (setting [14]), 45% in experiment [1] (setting [15]) and 46% in experiment [1] (setting [16]). Also, the values for the inhibition at 2 µg/mL in experiment [2] (setting [17]) and in experiment [4] (setting [17]) were 14% and 17%, respectively. Besides, the inhibition at 10 µg/mL in experiment [2] (setting [18]) stood at 96%; in experiment [4] (setting [18]) it was 92%.

On to `CC1CCCCCCC(=O)/C=C/C(=O)O1` (stereo not drawn) [patulolide A], for which the plant growth inhibition entry with plant growth is listed as “plant growth inhibiting”. For the same compound, the inhibition at 10 µg/mL in experiment [1] (setting [19]) is 23%; in experiment [1] (setting [20]) it was 35%; in experiment [1] (setting [21]) it was 35%; in experiment [1] (setting [22]), 35%; in experiment [2] (setting [18]), 99%; in experiment [4] (setting [18]), 100%. Besides, the inhibition at 40 µg/mL came out at 21% in experiment [1] (setting [13]), 51% in experiment [1] (setting [14]), 53% in experiment [1] (setting [15]) and 30% in experiment [1] (setting [16]). Further, the figures for the inhibition at 2 µg/mL in experiment [2] (setting [17]) and in experiment [4] (setting [17]) were 46% and 44%, respectively.

`CC1CCCCCCC(=O)/C=C\C(=O)O1` (stereo not drawn) [patulolide B]: the plant growth inhibition result with plant growth was “plant growth inhibiting”. The inhibition at 10 µg/mL in experiment [1] (setting [19]) came to 5%; in experiment [1] (setting [20]) it was 54%; in experiment [1] (setting [21]), 47%; in experiment [1] (setting [22]) it was 51%; in experiment [2] (setting [18]) it was 99%; in experiment [4] (setting [18]), 100%. Moreover, the inhibition at 40 µg/mL came out at 3% in experiment [1] (setting [13]), 95% in experiment [1] (setting [14]), 93% in experiment [1] (setting [15]) and 93% in experiment [1] (setting [16]). Besides, the inhibition at 2 µg/mL in experiment [2] (setting [17]) was 63%; in experiment [4] (setting [17]), 57%.

Consider `C[C@@H]1CCCCCC[C@H](O)/C=C\C(=O)O1` [patulolide C], for which the plant growth inhibition entry in the experiment with plant growth is listed as “plant growth inhibiting”. In addition, the “Inhibition of constriction (percentage reduction of the constriction amplitude), spasmogen A” value in experiment [1] (setting [5]) was -38%; in experiment [1] (setting [9]), -24%. The “Inhibition of constriction (percentage reduction of the constriction amplitude), spasmogen B” value in experiment [1] (setting [6]) is recorded as -35%; in experiment [1] (setting [10]) it was -40%. For the same compound, the “Inhibition of constriction (percentage reduction of the constriction amplitude), spasmogen C” value is recorded as -98% in experiment [1] (setting [7]) and -36% in experiment [1] (setting [11]). Further, the “Inhibition of constriction (percentage reduction of the constriction amplitude), spasmogen D” value is recorded as -26% in experiment [1] (setting [8]) and -33% in experiment [1] (setting [12]). For the same compound, the “R = relaxation” value in experiment [1] (substance 40.00 mcg/ml) is “R”.

`Cn1c(=O)c2[nH]cnc2n(C)c1=O` [theophylline, reference compound]: the inhibition at 90 µg/mL is 70% in experiment [2] (setting [23]) and 72% in experiment [4] (setting [23]).

These data come from US5217990A, “Use of macrolactones as anti-allergics” (Boehringer Mannheim GmbH, priority 1989, dated 1993).
